Test results: ChEMBL document CHEMBL1137323, “Discovery of [4-Amino-2-(1-methanesulfonylpiperidin-4-ylamino)pyrimidin-5-yl](2,3-difluoro-6- methoxyphenyl)methanone (R547), a potent and selective cyclin-dependent kinase inhibitor with significant in vivo antitumor activity” (J Med Chem, 2006)

Assays:
[1] = target: Cyclin-dependent kinase 4/cyclin D1 (Homo sapiens, UniProt P11802)
Description: Inhibition of CDK4/Cyclin D1

[2] = target: Cyclin-dependent kinase 1 (Homo sapiens, UniProt P06493)
Description: Inhibition of CDK1/Cyclin B

[3] = target: Cyclin-dependent kinase 2 (Homo sapiens, UniProt P24941)
Description: Inhibition of CDK2/Cyclin E

in vivo [4] = conditions: nude, mouse, iv, 10 mg/kg
Description: Clearance in nude mouse at 10 mg/kg, iv

in vivo [5] = conditions: nude, mouse, iv, 10 mg/kg; remark: listed apart in the source
Description: Volume of distribution in nude mouse at 10 mg/kg, iv

Chain of Cyclin-dependent kinase 1 (P06493 whole entry): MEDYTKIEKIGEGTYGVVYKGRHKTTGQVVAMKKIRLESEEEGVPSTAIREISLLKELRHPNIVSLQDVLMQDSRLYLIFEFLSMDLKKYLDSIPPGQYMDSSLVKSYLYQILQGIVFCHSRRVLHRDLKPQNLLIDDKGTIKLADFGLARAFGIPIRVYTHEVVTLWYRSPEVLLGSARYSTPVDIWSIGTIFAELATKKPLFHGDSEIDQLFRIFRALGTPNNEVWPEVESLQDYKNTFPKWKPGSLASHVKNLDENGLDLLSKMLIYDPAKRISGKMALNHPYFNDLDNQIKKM
Chain of Cyclin-dependent kinase 4/cyclin D1 (P11802 whole entry): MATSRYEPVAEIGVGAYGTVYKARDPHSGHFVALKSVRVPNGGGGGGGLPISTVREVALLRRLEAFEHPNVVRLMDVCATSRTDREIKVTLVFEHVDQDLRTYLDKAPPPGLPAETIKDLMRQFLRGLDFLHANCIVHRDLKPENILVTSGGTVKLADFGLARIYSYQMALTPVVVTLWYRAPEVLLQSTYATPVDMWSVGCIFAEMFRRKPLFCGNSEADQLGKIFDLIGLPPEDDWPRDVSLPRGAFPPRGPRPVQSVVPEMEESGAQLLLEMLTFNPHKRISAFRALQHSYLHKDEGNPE
Chain of Cyclin-dependent kinase 4/cyclin D1 (P24385 whole entry, further chain): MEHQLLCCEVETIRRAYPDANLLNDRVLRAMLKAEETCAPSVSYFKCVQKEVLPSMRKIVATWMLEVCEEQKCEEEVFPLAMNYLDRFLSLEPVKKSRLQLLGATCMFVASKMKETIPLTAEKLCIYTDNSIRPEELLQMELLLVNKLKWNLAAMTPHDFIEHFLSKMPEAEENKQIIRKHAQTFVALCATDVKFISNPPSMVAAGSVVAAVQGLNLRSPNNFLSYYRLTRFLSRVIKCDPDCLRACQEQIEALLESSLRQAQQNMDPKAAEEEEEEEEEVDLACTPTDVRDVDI

What does the source list for COc1cc(F)c(F)c(F)c1C(=O)c1cnc(NC2CCN(S(C)(=O)=O)CC2)nc1N?
Ki [1]: 1 nM; Ki [2]: 5 nM; Ki [3]: 2 nM

With CCOC(=O)N1CCC(Nc2ncc(C(=O)c3ccccc3F)c(N)n2)CC1 as the molecule, how does the Ki [1] read?
Its Ki is 734 nM.

What about the Ki [2] of the same molecule?
Its Ki is 1640 nM.

And the Ki [3]?
The Ki was 3140 nM.

What does the source list for COc1c(C(=O)c2cnc(NC3CCN(S(C)(=O)=O)CC3)nc2N)cc(F)c(F)c1F?
Ki [1]: 267 nM; Ki [2]: 1670 nM; Ki [3]: 495 nM

With CCOC(=O)N1CCC(Nc2ncc(C(=O)c3ccccc3C)c(N)n2)CC1 as the molecule, how does the Ki [1] read?
Its Ki is 665 nM.

What about the Ki [2] of the same molecule?
Its Ki is 1110 nM.

And the Ki [3]?
Its Ki is 2170 nM.

Which results are given for CN1CCN(c2ccc(Nc3ncc(C(=O)c4cccc(F)c4)c(N)n3)cc2)CC1?
Ki [1]: 450 nM; Ki [2]: > 10000 nM; Ki [3]: > 10000 nM

For COc1ccccc1C(=O)c1cnc(NC2CCN(C)CC2)nc1N, which Ki [1] is on record?
Its Ki is > 1000 nM.

And the Ki [2]?
Its Ki is 6620 nM.

What about the Ki [3] of the same molecule?
The Ki was > 10000 nM.

For CN1CCN(c2ccc(Nc3ncc(C(=O)c4cccc(C(F)(F)F)c4)c(N)n3)cc2)CC1, which Ki [1] is on record?
Its Ki is > 1000 nM.

And the Ki [2]?
Its Ki is > 10000 nM.

And the Ki [3]?
Its Ki is > 10000 nM.

What does the source list for COc1cc(F)c(F)cc1C(=O)c1cnc(NC2CCN(S(C)(=O)=O)CC2)nc1N?
Ki [1]: 6 nM; Ki [2]: 14 nM; Ki [3]: 6 nM

With CCOc1ccccc1C(=O)c1cnc(NC2CCN(C(C)=O)CC2)nc1N as the molecule, how does the Ki [1] read?
Its Ki is 986 nM.

And the Ki [2]?
Its Ki is 2500 nM.

And the Ki [3]?
The Ki was 2030 nM.

What does the source list for CCOC(=O)N1CCC(Nc2ncc(C(=O)c3ccccc3OC)c(N)n2)CC1?
Ki [1]: 110 nM; Ki [2]: 246 nM; Ki [3]: 597 nM

What does the source list for COc1ccccc1C(=O)c1cnc(NC2CCN(C(C)=O)CC2)nc1N?
Ki [1]: 66 nM; Ki [2]: 181 nM; Ki [3]: 327 nM

What does the source list for CS(=O)(=O)N1CCC(Nc2ncc(C(=O)c3c(F)cccc3F)c(N)n2)CC1?
Ki [1]: 17 nM; Ki [2]: 38 nM; Ki [3]: 15 nM

For COc1ccc(F)cc1C(=O)c1cnc(NC2CCN(S(C)(=O)=O)CC2)nc1N, which Ki [1] is on record?
The Ki was 7 nM.

And the Ki [2]?
The Ki was 14 nM.

And the Ki [3]?
Its Ki is 7 nM.

And the clearance (in vivo [4])?
The clearance was 48.3 mL/min/kg.

And the Vd (in vivo [5])?
The Vd was 0.885 L/kg.

With COc1cc(F)ccc1C(=O)c1cnc(NC2CCN(S(C)(=O)=O)CC2)nc1N as the molecule, how does the Ki [1] read?
The Ki was 21 nM.

What about the Ki [2] of the same molecule?
Its Ki is 193 nM.

What about the Ki [3] of the same molecule?
Its Ki is 84 nM.

Which Ki [1] does the source give for COc1ccccc1C(=O)c1cnc(Nc2ccc(N3CCN(C)CC3)cc2)nc1N here?
Its Ki is 159 nM.

What about the Ki [2] of the same molecule?
Its Ki is 1260 nM.

What about the Ki [3] of the same molecule?
The Ki was 5140 nM.

What does the source list for CCCC(=O)N1CCC(Nc2ncc(C(=O)c3ccccc3OC)c(N)n2)CC1?
Ki [1]: 98 nM; Ki [2]: 278 nM; Ki [3]: 886 nM

What does the source list for CN1CCN(c2ccc(Nc3ncc(C(=O)c4ccccc4C(F)(F)F)c(N)n3)cc2)CC1?
Ki [1]: 821 nM; Ki [2]: > 10000 nM; Ki [3]: > 10000 nM

What does the source list for CCS(=O)(=O)N1CCC(Nc2ncc(C(=O)c3ccccc3OC)c(N)n2)CC1?
Ki [1]: 16 nM; Ki [2]: 43 nM; Ki [3]: 51 nM

Which Ki [1] does the source give for COc1ccc(Cl)cc1C(=O)c1cnc(NC2CCN(S(C)(=O)=O)CC2)nc1N here?
The Ki was 36 nM.

And the Ki [2]?
Its Ki is 133 nM.

And the Ki [3]?
The Ki was 451 nM.

With COc1cccc(F)c1C(=O)c1cnc(NC2CCN(S(C)(=O)=O)CC2)nc1N as the molecule, how does the Ki [1] read?
The Ki was 3 nM.

And the Ki [2]?
The Ki was 17 nM.

And the Ki [3]?
The Ki was 13 nM.

Which results are given for CCNC(=O)N1CCC(Nc2ncc(C(=O)c3ccccc3OC)c(N)n2)CC1?
Ki [1]: 409 nM; Ki [2]: 1530 nM; Ki [3]: 1760 nM

What does the source list for COc1ccccc1C(=O)c1cnc(NC2CCNCC2)nc1N?
Ki [1]: 481 nM; Ki [2]: 5840 nM; Ki [3]: 6270 nM

Which results are given for COc1cccc(C(=O)c2cnc(Nc3ccc(N4CCN(C)CC4)cc3)nc2N)c1?
Ki [1]: > 1000 nM; Ki [2]: > 10000 nM; Ki [3]: > 10000 nM

Which results are given for Cc1ccccc1C(=O)c1cnc(Nc2ccc(N3CCN(C)CC3)cc2)nc1N?
Ki [1]: 584 nM; Ki [2]: > 10000 nM; Ki [3]: > 10000 nM
